Laboratory results as given in patent publication EP4640694A1, “SELF-ASSEMBLING PEPTIDE” (CYTOPORT (TIANJIN) BIOTECHNOLOGY CO., LTD, priority 2022, dated 2025).
Where a SMILES comes first, the peptide text is derived from it. [ ]: non-standard residue; d: D form. Hyp = O=C(O)[C@@H]1C[C@@H](O)CN1

Legend:
HepG2 cells = assay: Cytocompatibility: relative viability (CCK-8) and cell counting over 5 days; type: cell-based; details: 0.1%, 0.3%, 0.5%, 0.7% peptide, 5 days without medium change
Experimental: The method in Experiment I for preparing a cell suspension at a concentration of 5×10^5 cells/mL was used to prepare a cell suspension at a concentration of 5×10^4 cells/mL. The cells obtained at a concentration of 5×10^4 cells/mL were inoculated into 96-well plates with each well containing about 5,000 cells. In the experimental groups, the self-assembling peptide sol prepared according to the method in Example 2 was added to achieve the concentrations of polypeptide of 0.1%, 0.3%, 0.5%, and 0.7% in the final system. In the control group, an equal volume of PBS buffer was added to replace the peptide solution, respectively. […] During the experiment, 10% of the culture volume of CCK-8 kit was added every 24 hours, and after incubation for 30 minutes, the OD values of each group were measured using an enzyme labeler (parameter setting: primary wavelength of 450 nm, secondary wavelength of 630 nm), and all experiments were set up with 5 parallel groups, and the results of the experiments were shown in Figure 9A. Relative cell viability was calculated using the formula below: Relative cell viability (%) = (At−A0t)/(A1−A01) × 100%; [formula]
Wherein At is the average OD values measured after t days of culturing cells. A0t is the average value of blank background measured after t days. […]

HepG2 = assay: Cell condition after culture: 5-day viability of cells harvested from spheroids; type: cell-based; details: cells harvested after 15 days in 0.1 wt.% peptide, 5-day viability test
Source text: In this experiment, cell spheroids cultured in Experiment III using the polypeptides as shown in SEQ ID NO.: 13 (IIIIIGOGIIGPGGEGPGGE) of the present invention at a concentration of 0.1 wt.% initiated by high-glucose medium were collected by centrifugation and digested into single cells. The applicability of the material of the present invention in cell culture and biomedical field were further evaluated by comparing the cell viability of cells cultured with the material of the present invention with that of cells cultured without the material of the present invention.
The cell spheroids in Experiment III were collected by centrifugation after 15 days of culture, and the cell spheroids were digested into single cells using trypsin, then centrifuged and collected, and an appropriate amount of high-glucose medium was added to the collected cells to prepare cell suspensions at concentrations of 5×10^5 and 5×10^4 cells/mL. Cell suspensions at a concentration of 5 ×10^4 cells/mL were inoculated into 96-well plates so that each well contained 5,000 cells. A cell suspension at a concentration of 5×10^4 cells/mL was prepared according to the method in […] for preparing a cell suspension at a concentration of 5×10^5 cells/mL and it was inoculated into a 96-well plate so that each well contained 5,000 cells, which served as a control group for this experiment. […]

[1] = Rheological experiment, energy storage modulus (G') of peptide/serum mixture; type: physicochemical; details: 0.5% peptide, 10 v/v% fetal bovine serum, neutral pH
Source text: Experimental Methods: Preparation of Self-Assembling Peptide Material Samples: 2 wt% of the self-assembling peptide solution obtained in Example 2 was used, the sequences as shown in SEQ ID NO:1 (IIIIGSIIGPGGDGPGGV), SEQ ID NO:2 (IIIIGSIIGPGGEGPGGV), SEQ ID NO:3 (IIIIGSIIGOGGEGPGGV), SEQ ID NO:4 (IIIIGSIIGOGGGEGPGGV), SEQ ID NO:5 (IIIIGSIIGOGGEGPGGGV), SEQ ID NO:6 (IIIIGSIIGOGGEGPGV), SEQ ID NO:7 (IIIIGSIIGOGAEGPGGV), SEQ ID NO:8 (IIIIIGSIIOGGAEGPGGV), SEQ ID NO:9 (IIIIIGSIIGOGGVGPGGV), and SEQ ID NO: 10 (IIIIIIGSIIGOGAEGPGGVGPGGV).
Preparation of hydrogel samples formed by self-assembling peptide solutions in response to cell complete medium: 2 wt% of stock solution of self-assembling peptides obtained in Example 2 was diluted with phosphate buffer, added by fetal bovine serum to achieve a mixture solution with a final concentration of self-assembling peptide of 0.5%, a final concentration of serum of 10 v/v% with a neutral pH.
The energy storage modulus (G') of the mixture solution was measured on a 20 mm plate using MARS 60 rheometer. In order to determine the rate of formation of three-dimensional nanomatrix, the solution was placed on a plate for testing immediately after preparation. A gap of 500µm was used, mineral oil was added to the gap to prevent dehydration of the samples, and data collection commenced immediately. Dynamic Time-Scanning experiment (DTS) was performed to monitor changes in energy storage modulus (G') with time (1 Hz frequency, 1% strain) for 2000 min.

erythrocytes [2] = assay: Erythrocyte support experiment with different initiator components; type: cell-based
Experimental: Experimental Methods: […] of erythrocyte stock solution (9.17×10^9/mL) was taken and diluted to 10 mL (9.17×10^7/mL) with 10 mM PBS, 4.5mL of erythrocyte dilution was added to a 10 ml of round-bottom tube and 4.5 mL of 4 mmol/L Calcein-AM solution was added, and the mixture was incubated at 37°C for 20 min and then centrifuged at 4°C, 1500r/min for 3 min. The supernatant was removed, and the pellet was resuspended in PBS, and repeated for 5 times to obtain about 1.5 mL of washed erythrocyte resuspension (1×10^8/mL) for latter use.
Experimental Results: PBS buffer was added to the erythrocyte resuspension solution to dilute the erythrocytes to 1×10^7/mL, and the mixture was allowed to stand for 4 hours, and the result was shown in Tube A in Figure 6.
The 1 wt% of self-assembling peptide solution (SEQ ID NO.:3) obtained in Example 2 was added ro make the final peptide concentration in the system of 0.05 wt% and the final concentration of erythrocytes of 1×10^7/mL, and the mixture was allowed to stand for 4 hours, and the result was shown in Tube B in Figure 6.
The mixed solution of polypeptide as shown in SEQ ID NO.:3 with lysine obtained in Example 3 was added to the erythrocytes resuspension solution, i.e., the polypeptide formed a three-dimensional network scaffold material in the presence of lysine, achieving a final peptide concentration in the system of 0.05 wt.%, mixing well and standing, and the result was shown in Tube C in Figure 6.
The mixted solution of self-assembling peptide as shown in SEQ ID NO.:3 with gentamicin obtained in Example 2 was added to the erythrocytes resuspension solution, i.e., the polypeptide formed the three-dimensional network scaffold material in the presence of gentamicin, achieving a final peptide concentration in the system of 0.05 wt.%, mixing well and standing, and the result was shown in Tube D in Figure 6.
The mixted solution of self-assembling peptide as shown in SEQ ID NO.:3 with polylysine obtained in Example 2 was added to the erythrocytes resuspension solution, i.e., the self-assembling peptide formed the three-dimensional network scaffold material in the presence of polylysine, achieving a final peptide concentration in the system of 0.05 wt.%, mixing well and standing, and the result was shown in Tube E in Figure 6.
The mixted solution of self-assembling peptide as shown in SEQ ID NO.:3 with fibrinogen obtained in Example 3 was added to the erythrocytes resuspension solution, i.e., the self-assembling peptide formed the three-dimensional network scaffold material in the presence of fibrinogen, achieving a final peptide concentration in the system of 0.05 wt.%, mixing well and standing, and the result was shown in Tube F in Figure 6.

erythrocytes [3] = assay: Erythrocyte support by different sequences under liquid conditions; type: cell-based; details: 0.01 wt% peptide, 0.1 wt% fibronectin, 1×10^8 erythrocytes
Experimental: Experimental Methods: PBS buffer was used to separately prepare a concentration of 0.1 wt% stock solutions of self-assembling peptides as shown in SEQ ID NO.: 1 (IIIIIGSIIGPGGDGPGGV), SEQ ID NO.: 2 (IIIIIGSIIGPGGEGPGGV), SEQ ID NO.: 3 (IIIIIGSIIGOGGEGPGGV), and SEQ ID NO.: 7 (IIIIIGSIIGOGAEGPGGV). These solutions were autoclaved.
Using 2 mL clear glass vials, 4 materials were prepared at concentrations of 0.1 wt%, 0.05 wt%, and 0.01 wt% in 2 mL of self-assembling peptide solution (containing a final concentration of 0.1 wt% of fibronectin) and a blank group (without self-assembling peptide solution, but containing 0.1 wt% of fibronectin). A stock solution of at a concentration of 5×10^9 erythrocytes was added to each sample to a final concentration of 1×10^8, and the mixture was homogenized by pipetting. Photographs were taken every 4 hours to compare the effects of different materials on the support for erythrocytes.

[4] = system: mouse mesenchymal stem cells; assay: Cell storage at 4°C, Calcein-AM/PI live/dead staining by flow cytometry; type: cell-based; details: for survival rate of mouse mesenchymal stem cells: 3D storage group, 0.05% peptide
Experimental: Experimental Methods: Storage of mouse mesenchymal stem cells at 4°C was taken as an example in this experiment. The isolated mouse mesenchymal stem cells were mixed well by pipetting, […] aliquots were dispensed into freezing tubes, and mixed well by pipetting so that their cell concentration was about 1×10^6 cells/mL. In 3D group, mouse serum, 1% of double antibody of 50% MAP+50% SFEM storage solution and the polypeptide as shown in SEQ ID NO.:20 (FLIVIGOGIIGOGGEGPGGE) were added to a final concentration of 0.05%. In 2D group, mouse serum and 1% of double antibody of 50% MAP+50% SFEM storage solution were added, followed by storage in a 4°C refrigerator.
Cell viability test: • (1) The preserved cells were thoroughly pipetted and mixed well, 500 µL of each cell suspension was taken into a 1.5 mLEP tube, PBS was added for washing, followed by centrifugation at 1,500 rpm for 10 minutes; and • (2) The supernatant was discarded, and the cells were resuspended in 150 µL of 1% PBA solution. Then, 150 µL of live/dead cell staining working solution was added, mixed thoroughly, and incubated at 37°C in a light-protected manner for 15 minutes. The samples were analyzed using a flow cytometer.

Molecule: CC[C@H](C)[C@H](N)C(=O)N[C@H](C(=O)N[C@H](C(=O)N[C@H](C(=O)N[C@H](C(=O)NCC(=O)N1C[C@H](O)C[C@H]1C(=O)NCC(=O)N[C@H](C(=O)N[C@H](C(=O)NCC(=O)N1CCC[C@H]1C(=O)NCC(=O)NCC(=O)N[C@@H](CCC(=O)O)C(=O)NCC(=O)N1CCC[C@H]1C(=O)NCC(=O)NCC(=O)N[C@@H](CCC(=O)O)C(=O)O)[C@@H](C)CC)[C@@H](C)CC)[C@@H](C)CC)[C@@H](C)CC)[C@@H](C)CC)[C@@H](C)CC [SEQ ID NO.: 13, IIIIIGOGIIGPGGEGPGGE] (H-IIIIIG[Hyp]GIIGPGGEGPGGE-OH)
- growth curve (cell counting) over 5 days (HepG2 cells): grew with a relatively uniform and stable proliferation rate
- relative cell viability over 5 days (CCK-8) (HepG2 cells): uniform and continuous steady increase in cell viability
- cell viability of harvested cells compared with control group (HepG2): slightly better than that of the control group

Molecule: IIIIIGSIIGOGGGEGPGV [SEQ ID NO.: 6]
- hydrogel structure and elasticity in response to serum [1]: could still form a hydrogel structure but with weaker elasticity

Molecule: IIIIIGSIIGOGGGEGPGGV [SEQ ID NO.: 3]
- erythrocyte distribution (erythrocytes [2]; Tube B: 0.05 wt% peptide alone, no initiator, 1×10^7/mL erythrocytes, 4 hours): significant sedimentation
- erythrocyte distribution (erythrocytes [2]; Tube C: 0.05 wt.% peptide with lysine): stereoscopic distribution
- erythrocyte distribution (erythrocytes [2]; Tube D: 0.05 wt.% peptide with gentamicin): stereoscopic distribution
- erythrocyte distribution (erythrocytes [2]; Tube E: 0.05 wt.% peptide with polylysine): stereoscopic distribution
- erythrocyte distribution (erythrocytes [2]; Tube F: 0.05 wt.% peptide with fibrinogen): three-dimensional stereoscopic dispersion of the erythrocytes
- time at which significant sedimentation of erythrocytes was shown (erythrocytes [3]): 32 h

Molecule: IIIIIGSIIGOGGGEGPGGGV [SEQ ID NO.: 5]
- hydrogel structure and elasticity in response to serum [1]: could still form a hydrogel structure but with weaker elasticity

Molecule: IIIIGSIIGOGGGEGPGGV [SEQ ID NO.: 4]
- hydrogel structure and elasticity in response to serum [1]: could still form a hydrogel structure but with weaker elasticity

Molecule: FLIVIGOGIIGOGGGEGPGGE [SEQ ID NO.: 20]
- survival rate of mouse mesenchymal stem cells ([4]; day 3 of storage (2D group 67%)): 79%
- survival rate of mouse mesenchymal stem cells ([4]; day 5 of storage (2D group 43%)): 71%
- increase in survival versus 2D storage ([4]; day 5 of storage): ~30%
